Tests used:
ALDH1A1 enzyme = target: T1, ALDH1A1 enzyme (Homo sapiens, UniProt P00352); assay: ALDH1A1 enzymatic assay (in vitro); assay type: biochemical; conditions: ALDH1A1 enzyme 20 nM, NAD+ 1 mM, propionaldehyde 80 μM; read-out: ALDH1A1 IC50
T1 sequence (P00352 1-501): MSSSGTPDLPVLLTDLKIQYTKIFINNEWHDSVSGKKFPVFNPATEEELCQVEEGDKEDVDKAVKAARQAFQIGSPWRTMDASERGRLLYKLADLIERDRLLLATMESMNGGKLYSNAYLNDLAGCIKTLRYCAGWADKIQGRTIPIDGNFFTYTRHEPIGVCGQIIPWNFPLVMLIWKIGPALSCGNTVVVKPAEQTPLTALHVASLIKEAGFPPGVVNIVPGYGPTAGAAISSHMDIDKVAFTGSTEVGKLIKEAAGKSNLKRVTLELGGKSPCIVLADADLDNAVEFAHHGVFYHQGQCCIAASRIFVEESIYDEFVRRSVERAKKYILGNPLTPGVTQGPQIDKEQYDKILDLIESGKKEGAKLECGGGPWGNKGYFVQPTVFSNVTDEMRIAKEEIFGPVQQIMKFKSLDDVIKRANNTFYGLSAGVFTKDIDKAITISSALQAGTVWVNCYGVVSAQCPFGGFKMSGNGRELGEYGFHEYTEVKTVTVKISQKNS
In short: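 ALDH1A1 (20 nM final) in 100 mM HEPES pH 7.5, 0.01% Tween 20 was preincubated 15 min at RT with compound (968 pM–57.2 μM final), then started with 1 mM NAD+ and 80 μM propionaldehyde. NADH fluorescence (ex 340/em 450 nm) followed kinetically for 10 min; change normalized to no-inhibitor and no-enzyme controls for percent inhibition and curve fitting.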

MIA PaCa-2 cells = assay: MIA PaCa2 cell-based assay (1,536-well high-content imaging ALDEFLUOR assay); design: species or system human; conditions: Homo sapiens, 0.5 h, ALDEFLUOR BAAA substrate 500 nM, 30 minutes
In short: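 High-content ALDEFLUOR imaging readout: BAA-retaining cells in FITC channel scored against Hoechst-counted nuclei. Before imaging, MIA PaCa-2 cells seeded at 1,000 per well received final 500 nM BAAA and 0.5 nM Hoechst with compounds in 16-point series (1.4 nM to 47.8 μM), 30 min, 37° C.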

IC50 (ALDH1A1 enzyme) [µM] | IC50 (MIA PaCa-2 cells) [µM] | SMILES
< 0.5 | 1 to 10 | CC1(C#N)CCN(c2c(C(=O)N3CCN(S(C)(=O)=O)CC3)cnc3c(F)c(F)c(F)cc23)CC1 [Example 138, 4-methyl-1-(6,7,8-trifluoro-3-(4-(methylsulfonyl)piperazine-1-carbonyl)quinolin-4-yl)piperidine-4-carbonitrile]
0.5 to 1 | > 10 | O=C(c1cnc2ccc(F)cc2c1N1CCC2(CC1)OCCO2)N1CCS(=O)(=O)CC1 [Example 53, (1,1-dioxidothiomorpholino)(6-fluoro-4-(1,4-dioxa-8-azaspiro[4.5]decan-8-yl)quinolin-3-yl)methanone]
< 0.5 | 1 to 10 | CS(=O)(=O)N1CCN(C(=O)c2cnc3ccc(F)cc3c2N2CCC3(CC2)OCCO3)CC1 [Example 52, (6-fluoro-4-(1,4-dioxa-8-azaspiro[4.5]decan-8-yl)quinolin-3-yl)(4-(methylsulfonyl)piperazin-1-yl)methanone]
< 0.5 | < 0.5 | CN(C)S(=O)(=O)N1CCN(C(=O)c2cnc3cc(F)c(F)cc3c2N2CCC(C)(C#N)CC2)CC1 [Example 177, 4-(4-(4-cyano-4-methylpiperidin-1-yl)-6,7-difluoroquinoline-3-carbonyl)-N,N-dimethylpiperazine-1-sulfonamide]
1 to 10 | > 10 | C[C@@H]1CN(C(=O)c2cnc3ccc(F)cc3c2N2CCC3(CC2)OCCO3)C[C@H](C)O1 [Example 55, ((2S*,6R*)-2,6-dimethylmorpholino)(6-fluoro-4-(1,4-dioxa-8-azaspiro[4.5]decan-8-yl)quinolin-3-yl)methanone]
< 0.5 | < 0.5 | CS(=O)(=O)C1CCN(C(=O)c2cnc3ccc(F)cc3c2N2CCC(C#N)(c3ccccc3)CC2)CC1 [Example 269, 1-(6-fluoro-3-(4-(methylsulfonyl)piperidine-1-carbonyl)quinolin-4-yl)-4-phenylpiperidine-4-carbonitrile]

Continued, molecule first:

SMILES | IC50 (ALDH1A1 enzyme) [µM] | IC50 (MIA PaCa-2 cells) [µM]
CCNC(=O)N1CCN(C(=O)c2cnc3cc(F)c(F)cc3c2N2CCC(C)(C#N)CC2)CC1 [Example 146, 4-(4-(4-cyano-4-methylpiperidin-1-yl)-6,7-difluoroquinoline-3-carbonyl)-N-ethylpiperazine-1-carboxamide] | 0.5 to 1 | 1 to 10
CS(=O)(=O)C1CCN(C(=O)c2cnc3ccc(Cl)cc3c2-c2ccc(C3(C#N)CC3)cc2)CC1 [Example 295, 1-(4-(6-chloro-3-(4-(methylsulfonyl)piperidine-1-carbonyl)quinolin-4-yl)phenyl)cyclopropanecarbonitrile] | < 0.5 | < 0.5
CN(C)S(=O)(=O)N1CCN(C(=O)c2cnc3ccsc3c2N2CCC(C#N)(c3ccccc3)CC2)CC1 [Example 287, 4-(7-(4-cyano-4-phenylpiperidin-1-yl)thieno[3,2-b]pyridine-6-carbonyl)-N,N-dimethylpiperazine-1-sulfonamide] | < 0.5 | < 0.5
CNC(=O)C1CCN(C(=O)c2cnc3ccc(F)cc3c2N2CCC(C#N)(c3ccccc3)CC2)CC1 [Cpd. 327, 1-(4-(4-cyano-4-phenylpiperidin-1-yl)-6-fluoroquinoline-3-carbonyl)-N-methylpiperidine-4-carboxamide] | < 0.5 | < 0.5
COc1ccc2ncc(C(=O)N3CCN(C(=O)C4CC4)CC3)c(N3CCN(C(C)=O)CC3)c2c1 [Example 23, 1-(4-(3-(4-(cyclopropanecarbonyl)piperazine-1-carbonyl)-6-methoxyquinolin-4-yl)piperazin-1-yl)ethanone] | > 10 | > 10
CCNC(=O)N1CCN(C(=O)c2cnc3c(F)c(OC)c(F)cc3c2N2CCC(C)(C#N)CC2)CC1 [Example 147, 4-(4-(4-cyano-4-methylpiperidin-1-yl)-6,8-difluoro-7-methoxyquinoline-3-carbonyl)-N-ethylpiperazine-1-carboxamide] | < 0.5 | 1 to 10
COc1ccc2ncc(C(=O)N3CCN(C(=O)C4CC4)CC3)c(N3CCC(C)(C#N)CC3)c2c1 [Example 27, 1-(3-(4-(cyclopropanecarbonyl)piperazine-1-carbonyl)-6-methoxyquinolin-4-yl)-4-methylpiperidine-4-carbonitrile] | < 0.5 | 1 to 10

— patent US11795177B2, “Substituted quinoline analogs as aldehyde dehydrogenase 1A1 (ALDH1A1) inhibitors” (THE UNITED STATES OF AMERICA, AS REPRESENTED BY THE …, priority 2017, dated 2023)
